The test system of series [1] is hemolysis of rabbit erythrocytes. Nature of the series: Rabbit erythrocyte hemolysis assay to evaluate inhibitory activity on the bypass pathway. It is filed as cell-based. Conditions: Oryctolagus cuniculus, 0.5 h, 48% NHP or 26.4% NHS, 37° C. 30 min, absorbance 415 nm. The text has this: 2. Rabbit Erythrocyte Hemolysis Assay to Evaluate the Inhibitory Activity of Compounds on the Bypass Pathway
Normal Human Serum, NHS (collected from healthy people), Normal Human Plasma, NHP (Shanghai Yuduo), 96-well ELISA plate (Jet Biofil), Japanese big-eared white rabbit (Wuhan WQJX), Alsever's solution (Procell), centrifuge (Thermo, PICO17), thermostatic shaker (Shanghai Fuma), destaining shaker (Beijing Liuyi), cell counter (Invitrogen, Counter Countess II) (GVB^o, EGTA, MgCl2, NaOH, microplate reader, microplate thermostatic shaker, and pipette are equivalent to those in the experiment 1).
48% NHP: 100% NHP was diluted to 48% with buffer;
26.4% NPS: 100% NHS was diluted to 26.4% with buffer;
rabbit erythrocyte suspension: blood was taken from rabbit ear marginal vein, anticoagulated with Alsever's solution at a ratio of 1:1, stored in portions at 4° C., and could be stored for 4 weeks. Before use, the suspension was centrifuged at 500 g for 5 min to discard the Alsever's solution, washed three times with an equal volume of buffer and centrifuged at 500 g for 5 min, and finally the density was adjusted to 6×10^8 cells/mL with buffer.
In the 96-well ELISA plate, the experimental group was added with 50 μL of 48% NHP or 26.4% NHS and 50 μL of compound solution; the positive control group was added with 50 μL of 48% NHP or 26.4% NHS and 50 μL of buffer containing 0.2% DMSO; the blank control group was added with 50 μL of 48% inactivated NHP or 26.4% inactivated NHS and 0.2% DMSO buffer; the H2O group was added with 100 μL of double-distilled water; incubated at 37° C. for 15 min; 20 μL of rabbit erythrocyte suspension was added to each well and incubated on a shaker at 37° C. for 30 min; centrifuged at 2000 g (3380 rpm) for 5 min, and […] of supernatant was transferred to a new 96-well ELISA plate, and the absorbance was detected at 415 nm.
The PC group represents 100% hemolysis, and the NC group represents 0% hemolysis.
IC50: half-maximal inhibitory concentration. Data were collected to calculate the log value of hemolysis percentage versus compound concentration, and IC50 values were calculated using GraphPad Prism software.

For series [2], the target named is T1, complement factor D (Homo sapiens, UniProt P00746).
T1 construct: purchased Complement tech
T1 sequence (P00746 26-253): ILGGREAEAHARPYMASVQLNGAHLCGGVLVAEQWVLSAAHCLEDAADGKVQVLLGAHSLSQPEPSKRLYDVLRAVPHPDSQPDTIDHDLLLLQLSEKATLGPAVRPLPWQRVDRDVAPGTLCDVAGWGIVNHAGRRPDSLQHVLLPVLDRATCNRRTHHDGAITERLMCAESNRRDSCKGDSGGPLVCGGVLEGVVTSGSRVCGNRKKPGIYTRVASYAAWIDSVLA
Put plainly: Complement factor D inhibitory activity (C3b method) in vitro screening; product Bb detected by ELISA. It is filed as biochemical. Conditions: factor D + factor B + factor C3b, 37° C., Bb by MicroVue Bb Plus ELISA. The text has this: 1. Complement Factor D Inhibitory Activity (C3b Method) In Vitro Screening Experiment
V-bottom plate (AXYGEN), DMSO (Sigma), MicroVue Bb Plus ELISA kit (Quidel), complement factor C3b (abbreviated as factor C3b, Complement tech), complement factor B (abbreviated as factor B, Complement tech), complement factor D (abbreviated as factor D, Complement tech), EDTA (MACKLIN), GVB^o (Complement tech), EGTA (Aladdin), MgCl2 (Aladdin), NaOH (Sinopharm), microplate reader (Molecular Devices, SpectraMax i3x), microplate thermostatic shaker (Thermo, MB100-2A), pipette (Gilson)
0.1 M Mg-EGTA: 3.8 g of EGTA, 0.9521 g of MgCl2, and 0.7 g of NaOH were weighed, and the pH was adjusted to 7.5 with NaOH. Distilled water was added to make up to 100 mL, and the mixture was filtered with a […] sterile needle filter, stored in portions at 4° C.
Buffer: 0.1 M Mg-EGTA solution was diluted 10-fold to 10 mM with GVB^o buffer; • factor B working solution: 1 mg/mL factor B solution (10.75 μM) was diluted 6.7-fold to 1.6 μM with buffer; • factor C3b working solution: 1 mg/mL factor C3b solution (5.68 μM) was diluted 5-fold to […] with buffer; • factor D working solution: 0.1 mg/mL factor D solution (4.17 μM) was diluted 1303-fold to 3.2 nM with buffer.
Note: a. The above dilution multiples are for reference only and are adjusted according to the true concentration labeled on the reagent; • b. factor B: 93 KDa, factor D: 24 KDa, factor C3b: 176 KDa.
Stop solution: An appropriate amount of EDTA powder was weighed, dissolved in a certain amount of GVB^o buffer, and the pH was adjusted to 7.5 with NaOH. The mixture was stirred until clear and prepared into a 10 mM solution.
Compound stock solution: 40 mM compound solution was diluted with DMSO into 1 mM stock solution, and the 1 mM stock solution was diluted 3-fold with DMSO at 8 points to prepare compound stock solutions of various concentrations.
Compound working solution: diluted 250-fold with buffer to obtain compound solutions of various concentrations.
In the V-bottom plate, the experimental group was added with 10 μL of factor D solution and 10 μL of compound solution; the positive control group was added with 10 μL of factor D solution and buffer containing 0.4% DMSO; the blank control group was added with […] containing 0.2% DMSO; incubated at 37° C. for 15 min; the factor B working solution and the factor C3b working solution were mixed homogeneously at a ratio of 1:1; 20 µL of the mixture was added to each well and incubated at 37° C. for 30 min; the reaction was stopped by adding 40 μL of stop solution; the production of product Bb was detected by MicroVue Bb Plus ELISA kit.
1.4.1 The required wells of the ELISA plate were taken out and allowed to return to room temperature, and the remaining ones were repackaged and stored at 4° C.;
1.4.2 the wells were washed twice with 300 μL of 1× wash buffer, and incubated for 1 min at 25° C. for the first wash;
1.4.3 samples were diluted 8-fold with complement specimen diluent, and 100 μL of sample was added to each well and incubated at 25° C. for 30 min;
1.4.4 the liquid in the wells was discarded, and the wells were washed 5 times with 300 μL of 1× wash buffer, and incubated at room temperature for 1 min for the first wash;
1.4.5 50 μL of Bb Plus Conjugate was added to each well and incubated at 25° C. for 30 min;
1.4.6 the liquid in the wells was discarded, and the wells were washed 5 times with 300 μL of 1× wash buffer, and incubated at room temperature for 1 min for the first wash;
1.4.7 100 μL of […] (Substrate Solution) was added to each well and incubated at 25° C. for 15 min;
1.4.8 100 μL of stop solution was added to each well, and the absorbance was detected at 450 nm within 30 min.
1.5.1 Inhibition rate of each drug concentration:
The PC group represents 0% inhibition rate, and the NC group represents 100% inhibition rate. […]

A short description of series [3]: In vivo pharmacokinetic study (PK assay on SD rats). Conditions: Sprague-Dawley, rat, plasma; for AUC(0-t) / Cmax / half-life: 1 mg/kg. The procedure:
3. In Vivo Pharmacokinetic Study of the Compounds of the Present Disclosure
After adaptive domestication, SPF grade SD rats were administered 1 or 3 mg/kg the compounds of the present disclosure by single gavage and tail vein injection, respectively. Plasma was collected at specific time points after administration, and the concentration of compounds in plasma was detected by LC-MS/MS (AB SCIEX Qtrap4500). The PK parameters of each compound were calculated using software to reflect the pharmacokinetic properties of the compounds of the present disclosure in vivo in animals.

As to `CC(N)c1cccc(-c2cc(COc3ccccc3CC(=O)O)cc(N3CCC4(CCOCC4)CC3)c2)c1` (stereo not drawn) [Compound 038], the IC50 in series [1] worked out at 206 nM. In the case of `NCc1cccc(-c2cc(COc3ccc(F)cc3CC(=O)O)cc(N3CCC4(CC3)COC4)c2)c1F` [Compound 025, 2-(2-((3′-(aminomethyl)-2′-fluoro-5-(2-oxa-7-azaspiro[3.5]nonan-7-yl)-[1,1′-biphenyl]-3-yl)methoxy)-5-fluorophenyl)acetic acid], the results for the concentration for half-maximal inhibition (IC50) in series [2] and in series [1] were 7 nM and 12 nM, respectively. `NC(CF)c1cccc(-c2cc(COc3ccccc3CC(=O)O)cc(N3CCC4(CC3)COC4)c2)c1` (stereo not drawn) [Compound 044, 2-(2-((3′-(1-amino-2-fluoroethyl)-5-(2-oxa-7-azaspiro[3.5]nonan-7-yl)-[1,1′-biphenyl]-3-yl)methoxy)phenyl)acetic acid] returned an IC50 in series [1] of 133 nM. The same measure, in the same setting: as for `NCc1cccc(-c2cc(COc3cc(F)ccc3CC(=O)O)cc(N3CCC4(CC3)CC4)c2)c1` [Compound 009, 2-(2-((3′-(aminomethyl)-5-(6-azaspiro[2.5]octan-6-yl)-[1,1′-biphenyl]-3-yl)methoxy)-4-fluorophenyl)acetic acid], the figure is 218 nM; as for `CC(N)c1cccc(-c2cc(COc3ccccc3CC(=O)O)cc(N3CCC4(CCOC4)CC3)c2)c1` (stereo not drawn) [Compound 036], 44 nM; as for `CC(N)c1cccc(-c2cc(COc3ccccc3CC(=O)O)cc(N3CCC4(CCCOC4)CC3)c2)c1F` (stereo not drawn) [Compound 056, 2-(2-((3′-(1-aminoethyl)-2′-fluoro-5-(2-oxa-9-azaspiro[5.5]undecan-9-yl)-[1,1′-biphenyl]-3-yl)methoxy)phenyl)acetic acid], 70 nM. On to `NCc1cccc(-c2cc(COc3ccccc3CC(=O)O)cc(N3CCC4(COC4)C3)c2)c1` [Compound 015, 2-(2-((3′-(aminomethyl)-5-(2-oxa-6-azaspiro[3.4]octan-6-yl)-[1,1′-biphenyl]-3-yl)methoxy)phenyl)acetic acid], for which inhibition in series [1] was half-maximal at 7 nM (IC50). Still for that read-out and setting: as for `CC(N)c1cccc(-c2cc(COc3ccccc3CC(=O)O)cc(N3CCC4(CCOCC4)CC3)c2)c1F` (stereo not drawn) [Compound 055, 2-(2-((3′-(1-aminoethyl)-2′-fluoro-5-(3-oxa-9-azaspiro[5.5]undecan-9-yl)-[1,1′-biphenyl]-3-yl)methoxy)phenyl)acetic acid], the figure is 117 nM; as for `CC(N)c1cccc(-c2cc(COc3ccccc3CC(=O)O)cc(N3CCC4(CCCOC4)CC3)c2)c1` (stereo not drawn) [Compound 039], 127 nM. Compound `NCc1cccc(-c2cc(COc3ccccc3CC(=O)O)cc(N3CC4(CCCCC4)C3)c2)c1` [Compound 005, 2-(2-((3′-(aminomethyl)-5-(2-azaspiro[3.5]nonan-2-yl)-[1,1′-biphenyl]-3-yl)methoxy)phenyl)acetic acid] yielded a 50% inhibitory concentration (IC50) in series [1] of 73 nM.

In series [3] (IV), `NCc1cccc(-c2cc(COc3ccc(F)cc3CC(=O)O)cc(N3CCC4(CC3)CC4)c2)c1` [Compound 010, 2-(2-((3′-(aminomethyl)-5-(6-azaspiro[2.5]octan-6-yl)-[1,1′-biphenyl]-3-yl)methoxy)-5-fluorophenyl)acetic acid] gave an AUC(0-t) of 5660 ng·h/mL, a Cmax of 1840 ng/mL and a half-life of 3.31 h. Further, in series [3] (PO 1 mg/kg vs IV 1 mg/kg, read-out: Oral bioavailability F), the bioavailability is 30.9%. Further, in series [3] (PO (3% DMSO + 4% Tween)), the area under the curve AUC(0-t) is 1750 ng·h/mL, the maximum concentration (Cmax) worked out at 349 ng/mL and the half-life is 3.18 h. In series [1], this compound displayed a half-inhibitory concentration (IC50) of 159 nM.

In turn, `CC(N)c1cccc(-c2cc(COc3ccccc3CC(=O)O)cc(N3CCC4(CCO4)CC3)c2)c1` (stereo not drawn) [Compound 043] came in with a half-inhibitory concentration (IC50) in series [1] of 93 nM.

`CC(N)c1cccc(-c2cc(COc3ccccc3CC(=O)O)cc(N3CC4(CCOC4)C3)c2)c1` (stereo not drawn) [Compound 040] gave a 50% inhibitory concentration (IC50) in series [1] of 138 nM. Same read-out and setting: as for `NCc1cccc(-c2cc(COc3ccccc3CC(=O)O)c(F)c(N3CCC4(CC3)COC4)c2)c1` [Compound 026, 2-(2-((3′-(aminomethyl)-4-fluoro-5-(2-oxa-7-azaspiro[3.5]nonan-7-yl)-[1,1′-biphenyl]-3-yl)methoxy)phenyl)acetic acid], the figure is 16 nM. Take `CC(N)c1cccc(-c2cc(COc3ccccc3CC(=O)O)cc(N3CCOC4(CC4)C3)c2)c1` (stereo not drawn) [Compound 035]: the IC50 in series [1] is 183 nM. On the same count and under the same terms, as for `NCc1cccc(-c2cc(COc3c(F)cccc3CC(=O)O)cc(N3CCC4(CC3)COC4)c2)c1` [Compound 028, 2-(2-((3′-(aminomethyl)-5-(2-oxa-7-azaspiro[3.5]nonan-7-yl)-[1,1′-biphenyl]-3-yl)methoxy)-3-fluorophenyl)acetic acid], the figure is 58 nM. Same read-out and setting: as for `NCc1cccc(-c2cc(COc3ccccc3CC(=O)O)cc(N3CCC4(CCC4)CC3)c2)c1` [Compound 002, 2-(2-((3′-(aminomethyl)-5-(7-azaspiro[3.5]nonan-7-yl)-[1,1′-biphenyl]-3-yl)methoxy)phenyl)acetic acid], the figure is 98 nM; as for `CC(N)c1cccc(-c2cc(COc3ccccc3CC(=O)O)cc(N3CCC4(CCO4)C3)c2)c1` (stereo not drawn) [Compound 041, 2-(2-((3′-(1-aminoethyl)-5-(1-oxa-6-azaspiro[3.4]octan-6-yl)-[1,1′-biphenyl]-3-yl)methoxy)phenyl)acetic acid], 151 nM; as for `CC(N)c1cccc(-c2cc(COc3ccccc3CC(=O)O)cc(N3CCC4(CC3)COC4)c2)c1` (stereo not drawn) [Compound 042], 50 nM.

The record behind these values is US20240391877A1, “COMPOUND AS INHIBITOR OF COMPLEMENT FACTOR D, AND PHARMACEUTICAL COMPOSITION AND USE THEREOF” (WUHAN CREATERNA SCIENCE AND TECHNOLOGY CO.,LTD., priority 2021, published 2024).
